Reference: patent US7659113B2 (priority 2002, dated 2010)
“Also recorded” adds a separate entry of the source.

Key:
wild type FPV M2 = wild type FPV M2 (Influenza A virus, UniProt P03492); test: cell-based; assay type: cell-based
[1] = tested on: VSV-G pseudotyped SIN-6.1CZW vector; assay type: cell-based
[2] = tested on: FPV HA/M2 pseudotyped SIN-6.1CZW vector; assay type: cell-based
[3] = tested on: VSV-G pseudotyped SIN-6.1CZW vector; assay type: cell-based; remark: listed apart in the source
influenza virus = details: cited from earlier work
VSV = details: cited from earlier work

Chain of wild type FPV M2 (P03492 whole entry, looked up): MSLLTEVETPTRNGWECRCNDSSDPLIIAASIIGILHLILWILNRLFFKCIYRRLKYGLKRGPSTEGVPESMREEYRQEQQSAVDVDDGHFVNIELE

SMILES: NC12CC3CC(CC(C3)C1)C2 [amantadine]
- effect on vector production (wild type FPV M2): inhibits the augmentation of HA pseudotyping by M2; also recorded: potent dose-dependent effect
- inhibition at 5 µM (wild type FPV M2; read-out: inhibition of M2 augmented vector production): 70%
- effect on pseudotyping of SIN-6.1CZW by VSV-G [1]: did not affect
- effect on gene transfer step of HA pseudotyped vector [2]: affected the gene transfer step; also recorded: Higher doses were required to inhibit transduction than to inhibit vector production
- effect on gene transfer by VSV-G pseudotyped vector [3]: did not affect gene transfer
- inhibition of influenza virus replication in cell culture (influenza virus): effective inhibitor
- VSV replication, sensitivity to amantadine (VSV): refractory
